# Assay results reported in paper PMC6273978, “Synthesis and Pharmacological Evaluation of Novel Pleuromutilin Derivatives with Substituted Benzimidazole Moieties” (Molecules, 2016).
# Where a name gives a salt, the structure may show the parent alone.
# Assays:
# S. haemolyticus = experiment: Oxford cup assay, zone of inhibition; type: cell-based; conditions: Staphylococcus haemolyticus
# Method: (§1) The Oxford cup assays were carried out to evaluate the antibacterial activities against the above-mentioned six bacterial strains. The zones of inhibition for two concentrations (320 and 160 μg/mL) of the synthetic compounds and tiamulin fumarate were measured. The results of Oxford cup assay correspond with that obtained by agar dilution method (MICs) as a whole.
# (§2) The procedure for Oxford cup assays was the same as that previously reported. Briefly, inoculums were prepared in 0.9% saline using McFarland standard and spread uniformly on nutrient agar plates. The 320 and 160 µg/mL of all the tested compounds were added individually into the Oxford cups that were placed at equal distances above the agar surfaces. The zone of inhibition for each concentration was measured after a 24–36 h incubation at 37 °C. The same procedure was repeated in triplicate.
# S. aureus [1] = experiment: Oxford cup assay, zone of inhibition; type: cell-based; conditions: Staphylococcus aureus
# Method: as §1, §2
# S. warneri = experiment: Oxford cup assay, zone of inhibition; type: cell-based; conditions: Staphylococcus warneri
# Method: as §1, §2
# MRSA [2] = experiment: Oxford cup assay, zone of inhibition; type: cell-based; conditions: Staphylococcus aureus
# Method: as §1, §2
# E. coli = experiment: Oxford cup assay, zone of inhibition; type: cell-based; conditions: Escherichia coli
# Method: as §1, §2
# S. vitulinus = experiment: Oxford cup assay, zone of inhibition; type: cell-based, Staphylococcus vitulinus; conditions: Mammaliicoccus vitulinus
# Method: as §1, §2
# [3] = tested on: Escherichia coli (E. coli); experiment: MIC testing, agar dilution method; type: cell-based; conditions: 36.5 °C, 24–48 h
# From the text: (§3) The synthesized pleuromutilin derivatives 3 and 4a–l, with tiamulin fumarate used a as reference drug, were screened for their in vitro antibacterial activity against Escherichia coli (E. coli), Staphylococcus aureus (S. aureus), Methicillin-resistant Staphylococcus aureus (MRSA), Staphylococcus vitulinus (S. vitulinus), Staphylococcus warneri (S. warneri), and Staphylococcus haemolyticus (S. haemolyticus). The antibacterial activities are reported in Table 1 as the minimum inhibitory concentration (MIC) using the agar dilution method. The MICs of the 13 new pleuromutilin derivatives in vitro against E. coli ranged from 10 to 80 μg/mL; against S. aureus, MRSA, S. vitulinus, S. warneri, and S. haemolyticus ranged from 0.156 to 40 μg/mL, respectively.
# (§4) The MIC for the synthesized compounds (3 and 4a–l) and tiamulin fumarate used as a reference drug were determined using the agar dilution method according to the National Committee for Clinical Laboratory Standards (NCCLS). Tested compounds were dissolved in 25%–40% DMSO to a solution with a concentration of 1280 µg/mL, whereas tiamulin fumarate was directly dissolved in 10 mL of distilled water at the same concentration as the tested compounds. All the solutions were then diluted twofold with sterile water to provide 11 dilutions (final concentration is 0.625 µg/mL). A 2 mL volume of the 2-fold serial dilution of each test compound/drug was incorporated into 18 mL of hot Muellere-Hinton agar medium. Inoculums, including five Gram (+), S. aureus, MRSA, S. vitulinus, S. warneri, S. haemolyticus, and one Gram (−), E. coli were prepared from blood slants and adjusted to approximately 10^5–10^6 CFU/mL with sterile saline (0.90% NaCl). A 10 µL amount of bacterial suspension was spotted onto Muellere-Hinton agar plates containing serial dilutions of the compounds/drug. The plates were incubated at 36.5 °C for 24–48 h. The same procedure was repeated in triplicate.
# [4] = tested on: Staphylococcus vitulinus (S. vitulinus); experiment: MIC testing, agar dilution method; type: cell-based; conditions: Mammaliicoccus vitulinus, 36.5 °C, 24–48 h
# From the text: as §3, §4
# [5] = tested on: Staphylococcus aureus (S. aureus); experiment: MIC testing, agar dilution method; type: cell-based; conditions: 36.5 °C, 24–48 h
# From the text: as §3, §4
# [6] = tested on: Methicillin-resistant Staphylococcus aureus (MRSA); experiment: MIC testing, agar dilution method; type: cell-based; conditions: 36.5 °C, 24–48 h
# From the text: as §3, §4
# [7] = tested on: Staphylococcus warneri (S. warneri); experiment: MIC testing, agar dilution method; type: cell-based; conditions: 36.5 °C, 24–48 h
# From the text: as §3, §4
# [8] = tested on: Staphylococcus haemolyticus (S. haemolyticus); experiment: MIC testing, agar dilution method; type: cell-based; conditions: 36.5 °C, 24–48 h
# From the text: as §3, §4
# S. aureus [9] = experiment: Inhibition of short-term bacterial growth (absorbance at 450 nm); type: cell-based; conditions: Staphylococcus aureus, 3.5 h, read-out: GI50 S. aureus growth
# Method: (§5) Compound 3, being the best antibacterial derivative, was chosen for further evaluation on its antibacterial effect to inhibit short-term S. aureus and MRSA growth (Figure 2). This includes the GI50 of tiamulin fumarate for S. aureus and MRSA.
# (§6) The inhibition activities of test compounds were evaluated by measuring the absorbance of the bacterial suspension. In brief, inoculums were prepared from blood slants and adjusted to approximately 10^6 CFU/mL in Muellere-Hinton broth. The 0.0625, 0.125, 0.25, 0.5, 1, and 2 µM of tested compounds were prepared and added to the prepared inoculums. A sample of inoculum with no compound was used as control. The absorbance of bacterial suspension at 450 nm was measured using an UV spectrophotometer after 3.5 h of incubation, and the inhibition was calculated as 1 − (A^P/A^0), where A^p and A^0 are the absorbance of bacterial suspension in the presence and absence of compounds, respectively. The same procedure was independently repeated in triplicate.
# MRSA [10] = experiment: as above; type: cell-based; conditions: Staphylococcus aureus, 3.5 h incubation, Mueller-Hinton broth
# Method: as §5, §6
Structure (SMILES),MIC [3] [µg/mL],MIC [4] [µg/mL],MIC [5] [µg/mL],MIC [6] [µg/mL],MIC [7] [µg/mL],zone of inhibition at 160 µg/mL (S. haemolyticus) [mm],zone of inhibition at 320 µg/mL (S. haemolyticus) [mm],zone of inhibition at 160 µg/mL (S. aureus [1]) [mm],zone of inhibition at 320 µg/mL (S. aureus [1]) [mm],zone of inhibition at 160 µg/mL (S. warneri) [mm],zone of inhibition at 320 µg/mL (S. warneri) [mm],zone of inhibition at 160 µg/mL (MRSA [2]) [mm],zone of inhibition at 320 µg/mL (MRSA [2]) [mm],zone of inhibition at 160 µg/mL (E. coli) [mm],zone of inhibition at 320 µg/mL (E. coli) [mm],zone of inhibition at 160 µg/mL (S. vitulinus) [mm],zone of inhibition at 320 µg/mL (S. vitulinus) [mm],MIC [8] [µg/mL],GI50 (S. aureus [9]) [nM],GI50 (MRSA [10]) [nM]
"C=C[C@]1(C)C[C@@H](OC(=O)CSc2nc3ccc(NC(=O)c4cc5ccccc5[nH]4)cc3[nH]2)[C@]2(C)[C@H](C)CC[C@]3(CCC(=O)[C@H]32)[C@@H](C)[C@@H]1O [Compound 4l, 14-O-(((1H-Indole-2-carboxamide)-5-aminobenzimidazole-2-yl)thioacetyl) mutilin]",20,5,10,10,2.5,20.8,25.1,20.9,24.7,25.4,29.6,19.8,21.6,17.4,20.5,22.1,26.5,10,,
"C=C[C@]1(C)C[C@@H](OC(=O)CSCCN(CC)CC)[C@]2(C)[C@H](C)CC[C@]3(CCC(=O)[C@H]32)[C@@H](C)[C@@H]1O [Tiamulin, tiamulin fumarate, reference compound]",1.25,0.156,0.156,0.156,0.156,28.8,31.5,25.1,28.2,22.4,30.5,28.1,30.5,25.8,27.1,18.6,30.9,0.156,98.3,254

# Continued by falling MIC [3], values first:
MIC [3] [µg/mL],MIC [4] [µg/mL],MIC [5] [µg/mL],MIC [6] [µg/mL],MIC [7] [µg/mL],Structure (SMILES),zone of inhibition at 160 µg/mL (S. haemolyticus) [mm],zone of inhibition at 320 µg/mL (S. haemolyticus) [mm],zone of inhibition at 160 µg/mL (S. aureus [1]) [mm],zone of inhibition at 320 µg/mL (S. aureus [1]) [mm],zone of inhibition at 160 µg/mL (S. warneri) [mm],zone of inhibition at 320 µg/mL (S. warneri) [mm],zone of inhibition at 160 µg/mL (MRSA [2]) [mm],zone of inhibition at 320 µg/mL (MRSA [2]) [mm],zone of inhibition at 160 µg/mL (E. coli) [mm],zone of inhibition at 320 µg/mL (E. coli) [mm],zone of inhibition at 160 µg/mL (S. vitulinus) [mm],zone of inhibition at 320 µg/mL (S. vitulinus) [mm],MIC [8] [µg/mL],GI50 (S. aureus [9]) [nM],GI50 (MRSA [10]) [nM]
40,40,40,20,20,"C=C[C@]1(C)C[C@@H](OC(=O)CSc2nc3ccc(NC(=O)c4ccc(OC)cc4)cc3[nH]2)[C@]2(C)[C@H](C)CC[C@]3(CCC(=O)[C@H]32)[C@@H](C)[C@@H]1O [Compound 4i, 14-O-((4-Methoxybenzamide-5-aminobenzimidazole-2-yl)thioacetyl) mutilin]",23,32.9,18.6,21.5,18.6,21.8,21.3,25.7,14.2,17.7,17.6,18.2,5,,
20,1.25,5,1.25,2.5,"C=C[C@]1(C)C[C@@H](OC(=O)CSc2nc3ccc(NC(=O)C4CCCCC4)cc3[nH]2)[C@]2(C)[C@H](C)CC[C@]3(CCC(=O)[C@H]32)[C@@H](C)[C@@H]1O [Compound 4j, 14-O-((Cyclohexanecarboxamide-5-aminobenzimidazole-2-yl)thioacetyl) mutilin]",23,26.4,15.4,27.2,24.7,27.7,28,31.9,17.4,19.8,26,29.1,10,,
20,1.25,1.25,1.25,5,"C=C[C@]1(C)C[C@@H](OC(=O)CSc2nc3ccc(NC(=O)c4ccc[nH]4)cc3[nH]2)[C@]2(C)[C@H](C)CC[C@]3(CCC(=O)[C@H]32)[C@@H](C)[C@@H]1O [Compound 4k, 14-O-(((1H-Pyrrole-2-carboxamide)-5-aminobenzimidazole-2-yl)thioacetyl) mutilin]",25.5,29.9,26.6,28.9,21.2,25.5,26.5,30.7,18.5,20.1,24.7,27,1.25,,
